According to patent US7732429B2 (Trustees of Tufts College, priority 1994, dated 2010):

Tests used:
Type in all cases: cell-based
S. aureus 4250 (Tet K) = assay: MIC/MLC chart, analog with and without doxycycline
E. faecalis 158 (Tet L) = assay: MIC/MLC chart, analog with and without doxycycline
E. coli ML308 = assay: susceptibility of tetracycline susceptible strains (MIC), C5 esters; settings: E. coli ML308, susceptible strain, drug alone
E. faecalis 211 (Tet M) = assay: MIC/MLC chart, analog with and without doxycycline
E. coli DI-299 (Tet A) = assay: MIC/MLC chart, analog with and without doxycycline; design: key to growth/killing, Analog + Doxy / growth/killing, Doxy Control / growth/killing, Analog Control / growth in MIC/MLC chart: +=growth; 0=no growth (MIC); ↓=killing; ? =99.9% killing (MLC); □=no growth, but no microbiologic testing;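 further: bacterial growth inhibition and killing in broth, each agent tested alone or combined with doxycycline across two-fold serial dilutions, overnight incubation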
S. aureus 450 = assay: susceptibility of tetracycline susceptible strains (MIC), C5 esters; settings: S. aureus 450, susceptible strain, drug alone
E. faecalis ATCC 9790 = assay: as above; settings: E. faecalis ATCC 9790, susceptible strain, drug alone

C=C1c2cccc(O)c2C(=O)C2=C(O)C3(O)C(=O)C(C(N)=O)=C(O)C(N(C)C)C3C(OC(=O)CC)C12 (stereo not drawn) [Cmpd 2]
1.3 µg/mL: MIC (S. aureus 450)
.8 µg/mL: MIC (E. faecalis ATCC 9790)
+: growth/killing, Analog + Doxy (S. aureus 4250 (Tet K); analog .195 + Doxy 1.56 μg/ml) | growth/killing, Analog + Doxy (S. aureus 4250 (Tet K); analog .195 + Doxy 3.12 μg/ml) | growth/killing, Analog + Doxy (S. aureus 4250 (Tet K); analog .195 + Doxy 6.25 μg/ml) | growth/killing, Analog + Doxy (S. aureus 4250 (Tet K); analog .39 + Doxy 1.56 μg/ml) | growth/killing, Analog + Doxy (S. aureus 4250 (Tet K); analog .39 + Doxy 3.12 μg/ml) | growth/killing, Analog + Doxy (S. aureus 4250 (Tet K); analog .39 + Doxy 6.25 μg/ml) | growth/killing, Analog + Doxy (S. aureus 4250 (Tet K); analog .78 + Doxy 1.56 μg/ml) | growth/killing, Analog + Doxy (S. aureus 4250 (Tet K); analog .78 + Doxy 3.12 μg/ml) | growth/killing, Analog Control (S. aureus 4250 (Tet K); analog alone 1.56 μg/ml) | growth/killing, Analog Control (S. aureus 4250 (Tet K); analog alone .195 μg/ml) | growth/killing, Analog Control (S. aureus 4250 (Tet K); analog alone .39 μg/ml) | growth/killing, Analog Control (S. aureus 4250 (Tet K); analog alone .78 μg/ml) | growth/killing, Analog + Doxy (E. faecalis 158 (Tet L); analog .195 + Doxy 1.56 μg/ml) | growth/killing, Analog + Doxy (E. faecalis 158 (Tet L); analog .195 + Doxy 3.12 μg/ml) | growth/killing, Analog + Doxy (E. faecalis 158 (Tet L); analog .39 + Doxy 1.56 μg/ml) | growth/killing, Analog Control (E. faecalis 158 (Tet L); analog alone .195 μg/ml) | growth/killing, Analog Control (E. faecalis 158 (Tet L); analog alone .39 μg/ml) | growth/killing, Analog Control (E. faecalis 158 (Tet L); analog alone .78 μg/ml) | growth/killing, Analog + Doxy (E. faecalis 211 (Tet M); analog 1.56 + Doxy 1.55 μg/ml) | growth/killing, Analog + Doxy (E. faecalis 211 (Tet M); analog 1.56 + Doxy 3.1 μg/ml) | growth/killing, Analog + Doxy (E. faecalis 211 (Tet M); analog 1.56 + Doxy 6.2 μg/ml) | growth/killing, Analog + Doxy (E. faecalis 211 (Tet M); analog 3.12 + Doxy 1.53 μg/ml) | growth/killing, Analog + Doxy (E. faecalis 211 (Tet M); analog 3.12 + Doxy 3.05 μg/ml) | growth/killing, Analog + Doxy (E. faecalis 211 (Tet M); analog 3.12 + Doxy 6.1 μg/ml) | growth/killing, Analog + Doxy (E. faecalis 211 (Tet M); analog .195 + Doxy 1.56 μg/ml) | growth/killing, Analog + Doxy (E. faecalis 211 (Tet M); analog .195 + Doxy 3.12 μg/ml) | growth/killing, Analog + Doxy (E. faecalis 211 (Tet M); analog .195 + Doxy 6.25 μg/ml) | growth/killing, Analog + Doxy (E. faecalis 211 (Tet M); analog .195 + Doxy 12.5 μg/ml) | growth/killing, Analog + Doxy (E. faecalis 211 (Tet M); analog .39 + Doxy 1.56 μg/ml) | growth/killing, Analog + Doxy (E. faecalis 211 (Tet M); analog .39 + Doxy 3.12 μg/ml) | growth/killing, Analog + Doxy (E. faecalis 211 (Tet M); analog .39 + Doxy 6.25 μg/ml) | growth/killing, Analog + Doxy (E. faecalis 211 (Tet M); analog .39 + Doxy 12.5 μg/ml) | growth/killing, Analog + Doxy (E. faecalis 211 (Tet M); analog .78 + Doxy 1.56 μg/ml) | growth/killing, Analog + Doxy (E. faecalis 211 (Tet M); analog .78 + Doxy 3.12 μg/ml) | growth/killing, Analog + Doxy (E. faecalis 211 (Tet M); analog .78 + Doxy 6.23 μg/ml) | growth/killing, Analog + Doxy (E. faecalis 211 (Tet M); analog .78 + Doxy 12.4 μg/ml) | growth/killing, Analog Control (E. faecalis 211 (Tet M); analog alone 1.56 μg/ml) | growth/killing, Analog Control (E. faecalis 211 (Tet M); analog alone 3.12 μg/ml) | growth/killing, Analog Control (E. faecalis 211 (Tet M); analog alone 6.25 μg/ml) | growth/killing, Analog Control (E. faecalis 211 (Tet M); analog alone .195 μg/ml) | growth/killing, Analog Control (E. faecalis 211 (Tet M); analog alone .39 μg/ml) | growth/killing, Analog Control (E. faecalis 211 (Tet M); analog alone .78 μg/ml) | growth/killing, Analog + Doxy (E. coli DI-299 (Tet A); analog 1.56 + Doxy 1.55 μg/ml) | growth/killing, Analog + Doxy (E. coli DI-299 (Tet A); analog 1.56 + Doxy 3.1 μg/ml) | growth/killing, Analog + Doxy (E. coli DI-299 (Tet A); analog 1.56 + Doxy 6.2 μg/ml) | growth/killing, Analog + Doxy (E. coli DI-299 (Tet A); analog 1.56 + Doxy 12.3 μg/ml) | growth/killing, Analog + Doxy (E. coli DI-299 (Tet A); analog 3.12 + Doxy 1.53 μg/ml) | growth/killing, Analog + Doxy (E. coli DI-299 (Tet A); analog 3.12 + Doxy 3.05 μg/ml) | growth/killing, Analog + Doxy (E. coli DI-299 (Tet A); analog 3.12 + Doxy 6.1 μg/ml) | growth/killing, Analog + Doxy (E. coli DI-299 (Tet A); analog 6.25 + Doxy 3.0 μg/ml) | growth/killing, Analog + Doxy (E. coli DI-299 (Tet A); analog 6.25 + Doxy 5.9 μg/ml) | growth/killing, Analog + Doxy (E. coli DI-299 (Tet A); analog 12.5 + Doxy 2.8 μg/ml) | growth/killing, Analog + Doxy (E. coli DI-299 (Tet A); analog 12.5 + Doxy 5.5 μg/ml) | growth/killing, Analog + Doxy (E. coli DI-299 (Tet A); analog .195 + Doxy 1.56 μg/ml) | growth/killing, Analog + Doxy (E. coli DI-299 (Tet A); analog .195 + Doxy 3.12 μg/ml) | growth/killing, Analog + Doxy (E. coli DI-299 (Tet A); analog .195 + Doxy 6.25 μg/ml) | growth/killing, Analog + Doxy (E. coli DI-299 (Tet A); analog .195 + Doxy 12.5 μg/ml) | growth/killing, Analog + Doxy (E. coli DI-299 (Tet A); analog .39 + Doxy 1.56 μg/ml) | growth/killing, Analog + Doxy (E. coli DI-299 (Tet A); analog .39 + Doxy 3.12 μg/ml) | growth/killing, Analog + Doxy (E. coli DI-299 (Tet A); analog .39 + Doxy 6.25 μg/ml) | growth/killing, Analog + Doxy (E. coli DI-299 (Tet A); analog .39 + Doxy 12.5 μg/ml) | growth/killing, Analog + Doxy (E. coli DI-299 (Tet A); analog .78 + Doxy 1.56 μg/ml) | growth/killing, Analog + Doxy (E. coli DI-299 (Tet A); analog .78 + Doxy 3.12 μg/ml) | growth/killing, Analog + Doxy (E. coli DI-299 (Tet A); analog .78 + Doxy 6.23 μg/ml) | growth/killing, Analog + Doxy (E. coli DI-299 (Tet A); analog .78 + Doxy 12.4 μg/ml) | growth/killing, Analog Control (E. coli DI-299 (Tet A); analog alone 1.56 μg/ml) | growth/killing, Analog Control (E. coli DI-299 (Tet A); analog alone 3.12 μg/ml) | growth/killing, Analog Control (E. coli DI-299 (Tet A); analog alone 6.25 μg/ml) | growth/killing, Analog Control (E. coli DI-299 (Tet A); analog alone 12.5 μg/ml) | growth/killing, Analog Control (E. coli DI-299 (Tet A); analog alone 25.0 μg/ml) | growth/killing, Analog Control (E. coli DI-299 (Tet A); analog alone .195 μg/ml) | growth/killing, Analog Control (E. coli DI-299 (Tet A); analog alone .39 μg/ml) | growth/killing, Analog Control (E. coli DI-299 (Tet A); analog alone .78 μg/ml)
1.56 μg/ml: MIC of analog in combination (S. aureus 4250 (Tet K); with 1.55 μg/ml doxycycline (Chart 6B))
0.78 μg/ml: MIC of analog in combination (S. aureus 4250 (Tet K); with 6.23 μg/ml doxycycline (Chart 6B))
10 µg/mL: MIC (E. coli ML308)
